The numbers were not newly measured in US5618841A, “Composition of iodophor teat dip for the prevention of mastitis and a process for using the same” (priority 1994, dated 1997), which cites them from elsewhere.

In data set [1] the test system is microorganism. The following applies: rank order.
For data set [2] the following is noted: 25° C.
The conditions of data set [3]: first ionization constant.

Consider `O=C(O)CC(O)C(=O)O` (stereo not drawn) [Malic acid], for which the “relative antimicrobial strength, with respect to citric acid” value (“relative antimicrobial strength” below) in data set [1] is given as “Mandelic acid>Lactic acid>Glycolic acid>Malic acid>Citric acid”. On to `O=C(O)CO` [Glycolic acid], for which, in data set [1], the “relative antimicrobial strength” value was “Mandelic acid>Lactic acid>Glycolic acid>Malic acid>Citric acid”.

As for `CC(O)C(=O)O` (stereo not drawn) [Lactic acid], in data set [1], the “relative antimicrobial strength” value is reported as “Mandelic acid>Lactic acid>Glycolic acid>Malic acid>Citric acid”. Regarding `II` [elemental iodine], the solubility in water in data set [2] was 0.03%. For `O=C(O)C(O)c1ccccc1` (stereo not drawn) [Mandelic acid], the pKa in data set [3] is 3.39. In addition, the “relative antimicrobial strength” value in data set [1] is recorded as “Mandelic acid>Lactic acid>Glycolic acid>Malic acid>Citric acid”.
